≈ marks a conversion by molar mass, not a printed value. Calls of active or inactive are those of the source. The calls are words filed in the database; no cut-off is given here.

This is an account of results in ChEMBL document CHEMBL1147119 (2007).

The nature of series [1]: AUC (0-6h) in BALB/c mouse at 25 mg/kg, ip. The note with it: plasma. The class given is ADME, organism-based.
A short description of series [2]: Cmax in BALB/c mouse at 50 mg/kg, ip. The class given is ADME, organism-based. As to conditions: in vivo.
Series [3] is described as follows: AUC (0-6h) in BALB/c mouse at 100 mg/kg, ip. The class given is ADME, organism-based. As to conditions: plasma.
Series [4] has as its system Mus musculus. Description: Survival of Bacillus anthracis Ames infected BALB/c mouse at 30 mg/kg, ip every 12 hrs for 14 days administered 36 hrs after infection. The class given is functional.
In series [5] the test system is Mus musculus. Kind of series: Survival in BALB/c mouse infected with Bacillus anthracis Ames at 30 mg/kg, ip every 12 hrs for 14 days. The class given is functional, organism-based. The arrangement: dose 30 mg/kg.
The next series concerns Bacillus anthracis. Description: Antimicrobial activity against Bacillus anthracis Ames. The class given is functional.
Series [6] can be described thus: AUC (0-6h) in BALB/c mouse at 50 mg/kg, ip. The class given is ADME, organism-based. As to conditions: plasma.
Series [7] is described as follows: Trough level in BALB/c mouse at 100 mg/kg, ip after 6 hrs. The class given is ADME, organism-based. As to conditions: in vivo.
Series [8] can be described thus: Trough level in BALB/c mouse at 25 mg/kg, ip after 6 hrs. The class given is ADME, organism-based. The note with it: in vivo.
The subject of series [9] is Mus musculus. Description: Survival of Bacillus anthracis Ames infected BALB/c mouse at 30 mg/kg, ip every 12 hrs for 14 days administered 48 hrs after infection. The class given is functional.
The nature of series [10]: Trough level in BALB/c mouse at 50 mg/kg, ip after 6 hrs. As to conditions: in vivo. The class given is ADME, organism-based.
Series [11] is described as follows: Cmax in BALB/c mouse at 25 mg/kg, ip. The class given is ADME, organism-based. As to conditions: in vivo.
Series [12] can be described thus: Cmax in BALB/c mouse at 100 mg/kg, ip. The class given is ADME, organism-based. The note with it: in vivo.
For series [13], the system named is Mus musculus. Kind of series: Survival in BALB/c mouse infected with Bacillus anthracis Ames at 40 mg/kg every 6 hrs for 14 days. The class given is functional, organism-based. On the set-up: dose 40 mg/kg.

For `O=C(O)c1cn(C2CC2)c2cc(N3CCNCC3)c(F)cc2c1=O` [CIPROFLOXACIN], the AUC(0-t) (as a rule, the area under the concentration-time curve up to a stated or last time point) at 6 h in series [1] turned out to be 6600 ng·h/mL; in series [3], 37700 ng·h/mL; in series [6], 14100 ng·h/mL. Further, the Cmax – broadly, the peak of the concentration-time curve – in series [2] came to 10700 ng/mL; in [11], 6600 ng/mL; in series [12] it was 20000 ng/mL. Further, the survival at 30 mg/kg with Mus musculus [4] and with Mus musculus [9] was 80% each time. The outcome in the series with Mus musculus [5] was Active. The MIC (as a rule, the lowest concentration that inhibits growth of the organism) against Bacillus anthracis was determined as 0.25 µg/mL (≈ 0.754 µM). Further, the concentration at 6 h in [7] is 1670 ng/mL; in series [8], 1000 ng/mL; in series [10] it was 1830 ng/mL.
For `C[C@H]1c2cccc(O)c2C(=O)C2=C(O)[C@]3(O)C(=O)C(C(N)=O)=C(O)[C@@H](N(C)C)[C@@H]3[C@@H](O)[C@@H]21.O` [DOXYCYCLINE], the results for the AUC(0-t) at 6 h in [1], in series [3] and in series [6] were 13700 ng·h/mL, 57200 ng·h/mL and 23400 ng·h/mL, respectively. Also, in the series with Mus musculus [13], the result was Active. Further, the peak concentration (Cmax) in series [2] amounted to 6700 ng/mL; in series [11] it was 4000 ng/mL; in series [12] it was 12000 ng/mL. The compound also showed a minimal inhibitory concentration (MIC) against Bacillus anthracis of 0.03 µg/mL. The concentration at 6 h in series [7] is 6000 ng/mL; in series [8] it was 1330 ng/mL; in [10], 1670 ng/mL.
